Measurements reported in PMC5046085, “Systemic Inhibition of CREB is Well-tolerated in vivo” (Scientific Reports, 2016).

Columns and labels:
c-Myb = tested on: c-Myb; set-up: method as in PMID 15585582, PMID 25740244; details: cited from earlier work
Gal4-c-Myb(241–325) = target: T1, Gal4-c-Myb(241–325) (Homo sapiens, UniProt P10242); test: Gal4-c-Myb transcription reporter assay in HEK293T cells; assay type: cell-based; details: pG5B reporter, increasing concentrations, 5–7 h
T1 construct: Gal4-c-Myb (241–325) was a generous gift of Dr. Anders Näär; expressed in transfected cells; host or cells: HEK293T
Protocol: (§1) In these transcription reporter assays, HEK293T cells were transfected with Gal4-fusions along with a Gal4-responsive luciferase reporter or SRF-responsive luciferase (SRE-Luc) reporter. For Gal4-TEAD4, coactivator YAP1 was also included for transfection to enhance its transcription activity. Then the cells were treated with increasing concentrations of 666-15. […] (Fig. 2D).
(§2) Figure 2 Selectivity of 666-15 against different transcription factors. […] HEK 293T cells were transfected with Gal4-MLL/pG5B (A) Gal4-c-Myb/pG5B (B) Gal4-TEAD4/YAP1/pG5B (C) or SRE-Luc (D). Then the transfected cells were treated with increasing concentrations of 666-15 for 5–7 h. The luciferase activity was then measured, normalized to the protein content and expressed as relative luciferase unit (RLuc)/μg protein.
(§3) 666-15 was described before. […]
(§4) HEK293T cells (ATCC) were routinely cultured in Dulbecco’s modified Eagle medium (DMEM, Life Technologies) supplemented with 10% fetal bovine serum (Hyclone) and non-essential amino acids (Life Technologies). […] The luciferase activity was measured by a tube luminometer (Berthold) using luciferase assay reagent (Promega). The protein concentration of the cell lysates in each well was determined using a Protein Assay Dye Reagent (Biorad). The luciferase activity in each well was normalized to the protein content and expressed as RLuc (relative luciferase unit)/μg protein.

Gal4-MLL(2840–2858) = tested on: T2, Gal4-MLL(2840–2858); test: Gal4-MLL transcription reporter assay in HEK293T cells; assay type: cell-based, human; details: pG5B reporter, increasing concentrations, 5–7 h
T2 construct: human MLL (2840–2858) ([…]); expressed in transfected cells; host or cells: HEK293T
Protocol: as §1, §2, §3, §4

[1] = In vivo pharmacokinetics, plasma concentration by LC-MS/MS; details: female, mouse, single dose 10 mg/kg IP, C57BL/6 mice, read-out: plasma concentration 24 h after drug administration
Protocol: Then the blood was collected at different time points and the plasma drug concentration was measured using tandem mass spectroscopy coupled with liquid chromatography (LC/MS-MS) methods.
Blood was collected at 0.083, 0.25, 0.5, 1, 2, 4, 8, 24 h post drug administration. Blood was collected from each mouse from the submandibular vein (3 time points/mouse). The blood was collected into the EDTA-K2 tubes, and centrifuged at 4,000× rpm for 10 min at 4 °C. The plasma was removed and stored at −80 °C until further analysis. The quantitative LC-MS/MS analyses were conducted using an Agilent 1200 HPLC system coupled to an API 4000 mass spectrometer equipped with an API electrospray ionization (ESI) source. The mobile phases used are a linear gradient of mobile phase A (10 mM ammonium acetate in H2O) and mobile phase B (10 mM ammonium acetate in 90% MeOH). The column used was Xtimate C18 2.1 × 30 mm (3 μm) with a flow rate of 0.6 mL/min. The mass spectrometer was operated in ESI positive ion mode and detection of the drugs was performed by multiple reaction monitoring (MRM).

T2 sequence (P04386 with tags, fused parts or gaps): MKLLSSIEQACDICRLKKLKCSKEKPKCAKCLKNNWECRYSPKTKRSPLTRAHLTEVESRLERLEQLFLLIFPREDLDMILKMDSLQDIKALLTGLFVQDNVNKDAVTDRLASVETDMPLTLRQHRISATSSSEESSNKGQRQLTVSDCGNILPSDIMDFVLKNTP
T1 sequence (P10242 with tags, fused parts or gaps limits assumed): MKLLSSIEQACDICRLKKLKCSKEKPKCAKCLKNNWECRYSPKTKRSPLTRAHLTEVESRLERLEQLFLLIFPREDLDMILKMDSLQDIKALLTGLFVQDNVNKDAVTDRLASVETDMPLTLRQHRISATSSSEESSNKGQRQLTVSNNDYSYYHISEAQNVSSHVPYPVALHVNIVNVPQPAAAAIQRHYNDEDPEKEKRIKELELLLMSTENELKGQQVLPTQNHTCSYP

inhibition of Gal4-c-Myb-mediated transcription (Gal4-c-Myb(241–325)) | inhibition of Gal4-MLL-mediated transcription (Gal4-MLL(2840–2858)) | concentration at 24 h [1] [nM] | Structure (SMILES) | effect on c-Myb's activity (c-Myb)
 |  |  | O=C(Nc1ccc(Cl)cc1)c1cc2ccccc2cc1OP(=O)(O)O [naphthol AS-E phosphate] | inhibits c-Myb’s activity
no inhibition | no inhibition | 50 to 100 | NCCCOc1cc2ccccc2cc1C(=O)NCCOc1cc2ccccc2cc1C(=O)Nc1ccc(Cl)cc1O [666-15] | 
